Source: publication PMC7311426, “An amphipathic peptide with antibiotic activity against multidrug-resistant Gram-negative bacteria” (Nature Communications, 2020)
In brackets after ≈: the same amount, converted by molar mass. Like-named read-outs stand apart in the source and are kept apart here. Residues, ends and D or L forms follow the SMILES beside them.

Experiments:
[1] = test system: A. baumannii; assay: microbe, parasite or virus in culture; details: for MIC: Acinetobacter baumannii, mode of 6 replicates
Method in brief: (§1)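 MICs were scored by eye after 18-20 h static incubation at 37 °C, with bacteria at 5 × 10^5 CFU mL^−1 in MHB. Peptides were serially diluted 2-fold over 12 points, top 128 or 64 μg mL^−1. CAMHB (CLSI) and 1% agarose-MHB variants were also run, at least six replicates.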

[2] = test system: B. subtilis; assay: microbe, parasite or virus in culture
Method in brief: as §1

[3] = test system: C. albicans; assay: microbe, parasite or virus in culture
[4] = test system: C. neoformans; assay: microbe, parasite or virus in culture
[5] = test system: K. pneumoniae; assay: microbe, parasite or virus in culture; details: for MIC: Klebsiella pneumoniae, mode of 6 replicates
Method in brief: as §1

[6] = test system: L. monocytogenes; assay: microbe, parasite or virus in culture
Method in brief: as §1

[7] = test system: P. aeruginosa; assay: microbe, parasite or virus in culture; details: for MIC: Pseudomonas aeruginosa, mode of 6 replicates
Method in brief: as §1

[8] = test system: S. enterica Typhi; assay: microbe, parasite or virus in culture
Method in brief: as §1

[9] = test system: E. coli ATCC 25922; assay: microbe, parasite or virus in culture; assay type: cell-based, Escherichia coli; details: ATCC 25922
Method in brief: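 Broth microdilution MIC in Mueller Hinton broth, 12-point 2-fold series from 128 or 64 down to 0.06 or 0.03 μg mL^−1, 5 × 10^5 CFU mL^−1 inoculum. Read visually after 18-20 h at 37 °C without shaking; n ≥ 6. Additional tests in CAMHB, and in MHB with 1% agarose.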

[10] = in vitro; details: human
[11] = test system: HEK-293 human embryonic kidney cells; assay: in vitro
[12] = test system: HK-2 human kidney proximal tubule cells; assay: in vitro
[13] = test system: HepG2 liver hepatocellular carcinoma cells; assay: in vitro
[14] = test system: human erythrocytes (HRBC); assay type: cell-based
[15] = test system: E. coli; assay: microbe, parasite or virus in culture; details: Escherichia coli
Method in brief: as §1

[16] = test system: E. coli; set-up: method as in Hasman H, et al. Euro. Surveill. (2015) 20:49; details: E. coli ESBL20150072, mcr-1 pos; ESBL; CAMHB; comparator antibiotics; ref Hasman H, et al. Euro. Surveill. (2015) 20:49; cited from earlier work

CC(C)[C@@H]1NC(=O)CNC(=O)[C@H](CC(N)=O)NC(=O)[C@H](CCCNC(=N)N)NC(=O)[C@H](Cc2ccc(O)cc2)NC(=O)[C@H](C(C)C)NC(=O)[C@@H]2CSSC[C@H](NC(=O)[C@H](C(C)C)NC(=O)[C@H](CCCNC(=N)N)NC1=O)C(=O)N[C@@H](Cc1ccc(O)cc1)C(=O)N[C@@H](CCCNC(=N)N)C(=O)N[C@@H](CCCNC(=N)N)C(=O)N[C@H](C(=O)N[C@@H](CC(N)=O)C(=O)O)CSSC[C@H](NC(=O)[C@H](Cc1ccccc1)NC(=O)CN)C(=O)N[C@@H](Cc1c[nH]c3ccccc13)C(=O)N[C@@H](Cc1ccc(O)cc1)C(=O)N[C@@H](C(C)C)C(=O)N2 [Arenicin-3] (HELM PEPTIDE1{G.F.C.W.Y.V.C.V.Y.R.N.G.V.R.V.C.Y.R.R.C.N}$PEPTIDE1,PEPTIDE1,3:R3-20:R3|PEPTIDE1,PEPTIDE1,7:R3-16:R3$$$V2.0)
BMD MIC [1]: 1 µg/mL
BMD MIC [2]: 8 µg/mL
BMD MIC [3]: >32 µg/mL
BMD MIC ([3]; 24 h): >64 µg/mL
BMD MIC [4]: 1 µg/mL
BMD MIC [5]: 1 µg/mL
BMD MIC [6]: 8 µg/mL
BMD MIC [7]: 1 µg/mL
BMD MIC ([8]; Typhi): 2 µg/mL
MIC, MHB [9]: 1 µg/mL (≈ 0.383 µM)
CC50 at 24 h ([10]; HEK-293 cells): 271 µg/mL (≈ 104 µM)
CC50 at 24 h ([10]; HK-2 cells): 170 µg/mL (≈ 65.1 µM)
CC50 HEK293, Mean [11]: 271 µg/mL (≈ 104 µM)
CC50 HK2, Mean [12]: 170 µg/mL (≈ 65.1 µM)
CC50 HepG2 [13]: >300 µg/mL
CC50 HepG2, Mean [13]: >300 µg/mL
CC50 HepG2 ([13]; human, HepG2 cells, 24 h): >300 µg/mL
Heamolysis HC10, Mean [14]: 204 µg/mL

CO/N=C(\C(=O)N[C@@H]1C(=O)N2C(C(=O)[O-])=C(C[N+]3(C)CCCC3)CS[C@H]12)c1csc(N)n1 [Cefepime, reference compound]
MIC ([1]; ATCC19636, read-out: BMD MIC, A. baumannii ATCC 19636 type strain, CAMHB): 8 µg/mL (≈ 16.6 µM)
MIC ([1]; read-out: BMD MIC, A. baumannii Greece CI, XDR, PmxR, MHB): > 64 µg/mL
MIC ([15]; ATCC25922, read-out: BMD MIC, E. coli ATCC 25922 FDA control strain, CAMHB, mode of 6 replicates): ≤ 0.5 µg/mL
MIC ([15]; ATCC700926 / MG1655, read-out: BMD MIC): ≤ 0.5 µg/mL
MIC ([15]; ATCC700928, read-out: BMD MIC, E. coli ATCC 700928 CFT073 UPEC, CAMHB, mode of 6 replicates): ≤ 0.5 µg/mL
MIC ([15]; read-out: BMD MIC): 8 µg/mL (≈ 16.6 µM)
MIC ([5]; ATCC13883, read-out: BMD MIC, K. pneumoniae ATCC 13883 type strain (polymyxin/colistin heteroresistant), MHB): 1 µg/mL (≈ 2.08 µM)
MIC ([5]; ATCC700603, read-out: BMD MIC, K. pneumoniae ATCC 700603 (K6), MDR, OXA-2/SHV-18, CAMHB): 0.5 µg/mL (≈ 1.04 µM)
MIC ([5]; BAA2146, read-out: BMD MIC, K. pneumoniae BAA-2146, MDR, ESBL, NDM-1 pos, MHB): > 64 µg/mL
MIC ([5]; read-out: BMD MIC, K. pneumoniae Greece CI 8_GR_13, XDR, KPC-2, PmxR, MHB): > 64 µg/mL
MIC ([7]; ATCC27853, read-out: BMD MIC, P. aeruginosa ATCC 27853 control strain, CAMHB): ≤ 0.5 µg/mL
MIC ([7]; read-out: BMD MIC, P. aeruginosa FADDI-070, MDR, PmxR, MHB/CAMHB): > 64 µg/mL
MIC ([8]; Salmonella enterica, ATCC14028 / TYPHI, read-out: BMD MIC): ≤ 0.5 µg/mL
BMD MIC [16]: >2 µg/mL
